Assay results: patent US20200038478A1, “POLYPEPTIDE AND COMPOSITION THEREOF FOR TREATING DISEASES OF METABOLIC SYSTEM” (WUHAN GRECTECH CO., LTD., priority 2017, published 2020)
Bridge positions count the residues as written; N and C are the ends. Ends that are not written are not given here.

How the values were obtained:
normal mice [1] = experiment: Hypoglycemic effect on normal mice after administration by gavage, with or without glucose (Example 11); type: in vivo, Kunming white mice; settings: for Blood glucose level prior to administration: baseline
normal mice [2] = experiment: Hypoglycemic effect on normal mice after subcutaneous injection (Example 6); type: in vivo, Kunming white mice; settings: for Blood glucose level at 15 min after administration / Blood glucose level at 30 min after administration / Blood glucose level prior to administration: 1 mg/mL at 0.05 ml/10 g, single subcutaneous injection on the back; for Blood glucose level prior to administration: baseline
normal mice [3] = experiment: Hypoglycemic effect of synthetic polypeptides on normal mice after subcutaneous injection (Example 9); type: in vivo, Kunming white mice; settings: 1 mg/mL at 0.05 ml/10 g, single subcutaneous injection on the back
normal mice [4] = experiment: Hypoglycemic effect of the polypeptide on normal mice after tail vein injection (Example 3); type: in vivo, Kunming white mice; settings: for Blood glucose level at 15 min after administration / Blood glucose level at 30 min after administration / Blood glucose level prior to administration: single tail vein injection; for Blood glucose level prior to administration: baseline
normal mice [5] = experiment: Natural extract vs solid-phase synthetic polypeptide, normal mice, subcutaneous injection (Example 7); type: in vivo, Kunming white mice; settings: 1 mg/mL at 0.05 ml/10 g, single subcutaneous injection on the back; for Blood glucose level prior to administration: baseline
trypsin = experiment: Stability against trypsin in simulated intestinal fluid, HPLC (Example 16); type: in vitro ADME; settings: pH 6.8, 1 g trypsin per 100 mL, 37° C., 2 hours
Procedure: (§1) Polypeptides were subject to enzymatic hydrolysis in simulated gastric and simulated intestinal fluids, respectively, to verify whether the polypeptides were resistance to the enzymatic hydrolysis of digestive enzymes. Control experiments were performed with albumin.
Preparation of simulated intestinal fluid: 6.8 g of potassium dihydrogen phosphate was dissolved in 500 mL water, 0.4% (w/w) NaOH was added to adjust the pH to 6.8, and water was added to make up 1 L. 1 g trypsin per 100 mL solution was added, and after homogeneously mixing, the solution was filtered through a 0.22 μm sterile filter for use.
(§2) 10 μL of the polypeptide solution (10 mg/mL) was added to the simulated gastric fluid (1 mL) and simulated intestinal fluid (1 mL), respectively, and after homogeneously mixing, the mixtures were incubated in a water bath at 37° C. for 2 hours.
(§3) 1 mg of dried albumin powder was added to the simulated gastric fluid (1 mL) and simulated intestinal fluid (1 mL), respectively, and after homogeneously mixing, the mixtures were incubateed in a water bath at 37° C. for 2 hours.
(§4) The above enzymatic mixtures were detected by using HPLC.
(§5) Chromatographic conditions: mobile phase, water (containing 0.1% TFA)+acetonitrile (containing 0.1% TFA), gradient elution from 15% to 50% acetonitrile for 25 min, flow rate of 1 mL/min, detection wavelength of 214 nm, injection volume of 20 ul.

pepsin = biological target: T1, pepsin (Sus scrofa, UniProt P00791); experiment: Stability against pepsin in simulated gastric fluid, HPLC (Example 16); type: in vitro ADME; settings: pH 1.5, 1 g pepsin per 100 mL, 37° C., 2 hours
T1 construct: purchased Sigma-Aldrich Company Ltd
T1 sequence (P00791 60-385): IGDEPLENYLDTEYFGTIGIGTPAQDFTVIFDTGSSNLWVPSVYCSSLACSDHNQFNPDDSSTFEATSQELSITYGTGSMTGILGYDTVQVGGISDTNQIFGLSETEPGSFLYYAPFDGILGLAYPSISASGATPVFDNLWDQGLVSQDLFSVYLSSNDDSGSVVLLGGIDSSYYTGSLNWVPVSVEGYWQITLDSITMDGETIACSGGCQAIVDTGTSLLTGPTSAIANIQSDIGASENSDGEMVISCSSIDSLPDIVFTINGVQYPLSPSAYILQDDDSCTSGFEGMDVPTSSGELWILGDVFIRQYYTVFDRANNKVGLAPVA
Procedure: as §1
Preparation of simulated gastric fluid: water was added to diluted hydrochloric acid with a concentration of 1 mol/L, to adjust the pH to 1.5. 1 g pepsin per 100 mL solution was added, and after homogeneously mixing, the solution was filtered through a 0.22 μm sterile filter for use.
as §2, §3, §4, §5

[6] = system: mouse models of type 2 diabetes; experiment: Polypeptide mixture vs insulin, mouse models of type 2 diabetes, subcutaneous injection (Example 14); settings: KK mice, single subcutaneous injection on the back, polypeptide 2 mg/mL, insulin 0.5 U/mL, each 0.05 ml/10 g
[7] = system: mouse models of type 2 diabetes; experiment: Polypeptide mixture vs insulin, mouse models of type 2 diabetes, tail vein injection (Example 13); settings: KK mice, single tail vein injection, polypeptide 2 mg/mL, insulin 0.5 U/mL, each 0.05 ml/10 g
[8] = system: mouse models of type 2 diabetes; experiment: Polypeptide mixture vs insulin, mouse models of type 2 diabetes, intramuscular injection (Example 15); settings: KK mice, single intramuscular injection in the lateral thigh, polypeptide 2 mg/mL, insulin 0.5 U/mL, each 0.05 ml/10 g
normal mice [9] = experiment: Polypeptide vs insulin on normal mice after tail vein injection (Example 10); type: in vivo, Kunming white mice; settings: single tail vein injection, polypeptide 2 mg/mL at 0.05 ml/10 g (10 mg/kg), insulin 0.5 U/mL (2.5 U/kg)
[10] = Group B, 1 mg/mL polypeptide in saline at 0.10 ml/10 g
[11] = Group C polypeptide+glucose, 1 mg/mL polypeptide in 10% glucose solution at 0.10 ml/10 g
[12] = Group A high-dose, 1 mg/mL at 0.10 ml/10 g
[13] = Group B medium-dose, 1 mg/mL at 0.05 ml/10 g
[14] = Group C low-dose, 1 mg/mL at 0.025 ml/10 g

Substance: ASCNGVCSPFDIPPCGSPLCRCIPVGLVIGKCRNPYG (disulfide 15-32, 3-20, 7-22; listed as Pisum sativum) [SEQ ID No. 10]
- Blood glucose level at 15 min after administration (normal mice [1]; [10]): 6.9 ± 0.3 mmol/L
- Blood glucose level at 30 min after administration (normal mice [1]; [10]): 6.4 ± 0.2 mmol/L
- Blood glucose level at 45 min after administration (normal mice [1]; [10]): 6.1 ± 0.3 mmol/L
- Blood glucose level at 60 min after administration (normal mice [1]; [10]): 6.1 ± 0.2 mmol/L
- Blood glucose level prior to administration (normal mice [1]; [10]): 6.7 ± 0.6 mmol/L
- Blood glucose level at 15 min after administration (normal mice [1]; [11]): 7.1 ± 0.3 mmol/L
- Blood glucose level at 30 min after administration (normal mice [1]; [11]): 6.9 ± 0.2 mmol/L
- Blood glucose level at 45 min after administration (normal mice [1]; [11]): 6.6 ± 0.3 mmol/L
- Blood glucose level at 60 min after administration (normal mice [1]; [11]): 6.2 ± 0.2 mmol/L
- Blood glucose level prior to administration (normal mice [1]; [11]): 6.8 ± 0.4 mmol/L

Substance: ASCNGVCSPFEMPPCGSSACRCIPVGLVVGYCRHPSG (listed as Pisum sativum) [SEQ ID No. 72, extracted polypeptide with H at position 34, outside general formula (I); raised blood glucose]
- Blood glucose level at 15 min after administration (normal mice [2]): 8.91 ± 0.7 mmol/L
- Blood glucose level at 30 min after administration (normal mice [2]): 10.4 ± 0.8 mmol/L
- Blood glucose level prior to administration (normal mice [2]): 7.3 ± 0.6 mmol/L
- hypoglycemic activity (conclusion) (normal mice [2]; normal mice, subcutaneous injection): no hypoglycemic activity

Substance: ASCNGVCSPFEMPPCGSSACRCIPVGLVVGYCRNPSG (disulfide 15-32, 3-20, 7-22) [SEQ ID No. 26]
- Blood glucose level at 15 min after administration (normal mice [3]): 5.3 ± 0.4 mmol/L
- Blood glucose level at 30 min after administration (normal mice [3]): 4.6 ± 0.3 mmol/L
- Blood glucose level at 45 min after administration (normal mice [3]): 3.2 ± 0.2 mmol/L
- Blood glucose level at 60 min after administration (normal mice [3]): 2.1 ± 0.2 mmol/L
- Blood glucose level prior to administration (normal mice [3]; baseline): 6.8 ± 0.3 mmol/L
- Blood glucose level at 15 min after administration (normal mice [2]): 5.3 ± 0.4 mmol/L
- Blood glucose level at 30 min after administration (normal mice [2]): 4.4 ± 0.3 mmol/L
- Blood glucose level prior to administration (normal mice [2]): 7.1 ± 0.5 mmol/L

Substance: ASCNGVCSPFEMPPCGTSACRCIPVGLFIGYCRNPSG (disulfide 15-32, 3-20, 7-22; listed as Pisum sativum) [SEQ ID No. 7]
- Blood glucose level at 15 min after administration (normal mice [4]; [12]): 3.3 ± 0.3 mmol/L
- Blood glucose level at 30 min after administration (normal mice [4]; [12]): 2.1 ± 0.3 mmol/L
- Blood glucose level prior to administration (normal mice [4]; [12]): 7.1 ± 0.5 mmol/L
- Blood glucose level at 15 min after administration (normal mice [4]; [13]): 4.3 ± 0.4 mmol/L
- Blood glucose level at 30 min after administration (normal mice [4]; [13]): 3.3 ± 0.3 mmol/L
- Blood glucose level prior to administration (normal mice [4]; [13]): 7.9 ± 0.6 mmol/L
- Blood glucose level at 15 min after administration (normal mice [4]; [14]): 5.7 ± 0.3 mmol/L
- Blood glucose level at 30 min after administration (normal mice [4]; [14]): 4.3 ± 0.3 mmol/L
- Blood glucose level prior to administration (normal mice [4]; [14]): 6.9 ± 0.5 mmol/L
- hypoglycemic activity (conclusion) (normal mice [4]; normal mice, intravenous injection): explicit hypoglycemic activity

Substance: ASCNGVCSPFEMPPCGTSACRCIPVGLVVGYCRNPSG [Polypeptide A] (disulfide 15-32, 3-20, 7-22; listed as Pisum sativum)
- Blood glucose level at 15 min after administration (normal mice [5]): 5.2 ± 0.4 mmol/L
- Blood glucose level at 30 min after administration (normal mice [5]): 4.4 ± 0.5 mmol/L
- Blood glucose level at 45 min after administration (normal mice [5]): 3.6 ± 0.3 mmol/L
- Blood glucose level at 60 min after administration (normal mice [5]): 2.2 ± 0.2 mmol/L
- Blood glucose level prior to administration (normal mice [5]): 6.8 ± 0.5 mmol/L

Substance: ASCNGVCSPFEMPPCGTSACRCIPVGLVVGYCRNPSG [Polypeptide B] (disulfide 15-32, 3-20, 7-22; listed as Pisum sativum)
- Blood glucose level at 15 min after administration (normal mice [5]): 5.5 ± 0.3 mmol/L
- Blood glucose level at 30 min after administration (normal mice [5]): 4.6 ± 0.2 mmol/L
- Blood glucose level at 45 min after administration (normal mice [5]): 3.3 ± 0.2 mmol/L
- Blood glucose level at 60 min after administration (normal mice [5]): 2.4 ± 0.1 mmol/L
- Blood glucose level prior to administration (normal mice [5]): 7.2 ± 0.6 mmol/L

Substance: Albumin: Serum albumin (bovine) standard
- enzymatic hydrolysis in simulated intestinal fluid (trypsin): completely enzymatically hydrolyzed
- enzymatic hydrolysis in simulated gastric fluid (pepsin): completely enzymatically hydrolyzed

Substance: Insulin
- Blood glucose level at 15 min after administration [6]: 8.8 ± 0.8 mmol/L
- Blood glucose level at 30 min after administration [6]: 7.1 ± 0.7 mmol/L
- Blood glucose level at 45 min after administration [6]: 6.4 ± 0.5 mmol/L
- Blood glucose level at 60 min after administration [6]: 5.0 ± 0.4 mmol/L
- Blood glucose level prior to administration ([6]; baseline): 11.6 ± 1.1 mmol/L
- Blood glucose level at 15 min after administration [7]: 8.5 ± 0.7 mmol/L
- Blood glucose level at 30 min after administration [7]: 7.5 ± 0.4 mmol/L
- Blood glucose level at 45 min after administration [7]: 6.1 ± 0.4 mmol/L
- Blood glucose level at 60 min after administration [7]: 4.8 ± 0.3 mmol/L
- Blood glucose level prior to administration ([7]; baseline): 14.3 ± 0.9 mmol/L
- Blood glucose level at 15 min after administration [8]: 11.1 ± 0.9 mmol/L
- Blood glucose level at 30 min after administration [8]: 9.6 ± 0.7 mmol/L
- Blood glucose level at 45 min after administration [8]: 7.3 ± 0.8 mmol/L
- Blood glucose level at 60 min after administration [8]: 5.2 ± 0.4 mmol/L
- Blood glucose level prior to administration ([8]; baseline): 13.4 ± 1.1 mmol/L
- Blood glucose level at 15 min after administration (normal mice [9]): 5.2 ± 0.4 mmol/L
- Blood glucose level at 30 min after administration (normal mice [9]): 3.6 ± 0.3 mmol/L
- Blood glucose level at 45 min after administration (normal mice [9]): 2.7 ± 0.4 mmol/L
- Blood glucose level at 60 min after administration (normal mice [9]): 2.2 ± 0.2 mmol/L
- Blood glucose level prior to administration (normal mice [9]; baseline): 7.7 ± 0.6 mmol/L
